Values of other authors as cited in US20260234616A1, “CELL-PENETRATING PEPTIDES, CONJUGATES THEREOF, AND METHODS OF THEIR USE” (PepGen Inc., priority 2022, published 2026).

Tested on: dystrophin
Details: DMD patients; reported by the sponsor

## eteplirsen
  levels of dystrophin restoration in patients: approximately 1 % of normal
